# Source: US20230277597A1, “HAPLOIDENTICAL MIXED CHIMERISM FOR TREATING AUTOIMMUNE DISEASES” (CITY OF HOPE, priority 2020, published 2023)
# System: Foxp3^+ Treg cells
# Test: In vivo Treg depletion with diphtheria toxin in Haplo-MC NOD mice carrying Foxp3^DTR
# Set-up: species or system mouse
# Details: for mice insulitis free in all the evaluated islets: 3 weeks after first injection
substance,measurement,setting,value
diphtheria toxin [DT],insulitis after depletion of donor-type or host-type Treg cells,"DT every 3 days for 21 days, H-2^b/g7 mixed chimeric NOD mice","significant but moderate recurrence of insulitis, without causing hyperglycemia"
same,reduction of donor-type Treg,"DT every 3 days for 21 days, donor cells carrying Foxp3^DTR",~95%
same,reduction of host-type Treg,"DT every 3 days for 21 days, host cells carrying Foxp3^DTR",~90%
same,mice insulitis free in all the evaluated islets,donor-type Treg depleted chimeric mice,50%
same,mice insulitis free in all the evaluated islets,host-type Treg depleted chimeric mice,33%
